The values that follow come from US20140051575A1 (priority 2011, published 2014).

The nature of data set [1]: Measurement of logP values by HPLC on reversed phase columns (EEC directive 79/831 Annex V.A8). The class given is physicochemical. The settings on record: pH 2.7, 0.1% formic acid in water / acetonitrile gradient, calibration with alkan-2-ones. As for the experimental part:
Measurement of logP values was performed according EEC directive 79/831 Annex V.A8 by HPLC (High Performance Liquid Chromatography) on reversed phase columns with the following methods:
Measurement of LC-MS was done at pH 2.7 with 0.1% formic acid in water and with acetonitrile (contains 0.1% formic acid) as eluent with a linear gradient from 10% acetonitrile to 95% acetonitrile.
Calibration was done with not branched alkan2-ones (with 3 to 16 carbon atoms) with known logP-values (measurement of logP values using retention times with linear interpolation between successive alkanones). lambda-maX-values were determined using UV-spectra from 200 nm to 400 nm and the peak values of the chromatographic signals.

The next data set deals with Phytophthora infestans. In kind it is in vivo. Conditions: tomato plants, preventive spray, 500 ppm of active ingredient, evaluated 7 days after inoculation; 0% = untreated control, 100% = no disease.

In general, Log P refers to a log measure of how a compound divides between an organic and an aqueous phase. Take `Cc1nnnn1C(=NOCc1csc(NC(=O)C(C)OCC2CCCC2)n1)c1ccccc1` (stereo not shown) [Example 39]: in data set [1], the “Log P” value is reported as 4.31. The same compound gave an Eff. % with Phytophthora infestans of 100%.

As for `C=CCSCC(=O)Nc1nc(CON=C(c2ccccc2)n2nnnc2C)cs1` [Example 83], the “Log P” value in data set [1] was determined as 3.15. In the data set with Phytophthora infestans, this compound displayed an Eff. % of 88%.

For `Cn1nnnc1C(=NOCc1csc(NC(=O)CSC2CCCCC2)n1)c1ccccc1` [Example 76], the “Log P” value in data set [1] turned out to be 3.92. Besides, the Eff. % in the data set on Phytophthora infestans is 100%.

Take `Cc1nnnn1C(=NOCc1cccc(NC(=O)COCC2CCCCC2)n1)c1ccccc1` [Example 27]: the “Log P” value in data set [1] is reported as 4.76. In the data set with Phytophthora infestans, the Eff. % is given as 95%.

For the compound `Cc1nnnn1C(=NOCc1cccc(NC(=O)C(C)OCC2CCC2)n1)c1ccccc1` (stereo not shown) [Example 32], in data set [1], the “Log P” value was found to be 4.26. The same compound had an Eff. % with Phytophthora infestans of 100%.

`Cn1nnnc1C(=NOCc1cccc(NC(=O)COCCC2CCCC2)n1)c1ccccc1` [Example 11]: the “Log P” value in data set [1] turned out to be 4.61. The compound also yielded an Eff. % in the data set with Phytophthora infestans of 95%.

In the case of `Cc1nnnn1C(=NOCc1cccc(NC(=O)COCC2CCCC2)n1)c1ccccc1` [Example 26], in data set [1], the “Log P” value was found to be 4.34. The same compound had an Eff. % with Phytophthora infestans of 97%.

With `Cn1nnnc1C(=NOCc1cccc(NC(=O)CCSCc2ccc(F)cc2)n1)c1ccccc1` [Example 100], the “Log P” value in data set [1] was determined as 3.87. Also, in the data set on Phytophthora infestans, the Eff. % was 95%.

In the case of `COC(C)CC(CC(=O)Nc1nc(CON=C(c2ccccc2)c2nnnn2C)cs1)OC` (stereo not shown) [Example 103], the “Log P” value in data set [1] was determined as 2.78. In the data set on Phytophthora infestans, this compound came in with an Eff. % of 95%.

`Cn1nnnc1C(=NOCc1csc(NC(=O)CSC2CCCC2)n1)c1ccccc1` [Example 77]: the “Log P” value in data set [1] is 3.65. The Eff. % in the data set on Phytophthora infestans was 95%.

Regarding `CC(OCC1CCCC1)C(=O)Nc1cccc(CON=C(c2ccccc2)c2nnnn2C)n1` (stereo not shown) [Example 8], the “Log P” value in data set [1] was found to be 4.59. This compound also showed an Eff. % in the data set on Phytophthora infestans of 100%.

For `C=CCSC(C)C(=O)Nc1nc(CON=C(c2ccccc2)n2nnnc2C)cs1` (stereo not shown) [Example 85], the lipophilicity (Log P) in data set [1] is 3.35. In the data set on Phytophthora infestans, this compound returned an Eff. % of 98%.

For `CC(SC1CCCC1)C(=O)Nc1nc(CON=C(c2ccccc2)c2nnnn2C)cs1` (stereo not shown) [Example 73], in data set [1], the lipophilicity (Log P) was 3.99. This compound gave an Eff. % with Phytophthora infestans of 95%.

Take `Cc1nnnn1C(=NOCc1cccc(NC(=O)CCSCc2ccccc2)n1)c1ccccc1` [Example 112]: the “Log P” value in data set [1] turned out to be 3.89. In the data set on Phytophthora infestans, the Eff. % was found to be 88%.

For the compound `C=CCSC(C)C(=O)Nc1nc(CON=C(c2ccccc2)c2nnnn2C)cs1` (stereo not shown) [Example 75], the “Log P” value in data set [1] is 3.31. The Eff. % in the data set with Phytophthora infestans is 93%.

Consider `Cn1nnnc1C(=NOCc1csc(NC(=O)COCCC2CCCCC2)n1)c1ccccc1` [Example 20], for which, in data set [1], the “Log P” value came to 4.63. This compound also had an Eff. % in the data set with Phytophthora infestans of 100%.

For `Cc1nnnn1C(=NOCc1cccc(NC(=O)CSC2CCCC2)n1)c1ccccc1` [Example 80], the “Log P” value in data set [1] was 3.92. Moreover, the Eff. % with Phytophthora infestans is on record as 100%.

As to `Cn1nnnc1C(=NOCc1csc(NC(=O)CCOCc2ccccc2)n1)c1ccccc1` [Example 106], the “Log P” value in data set [1] amounted to 3.33. Besides, the Eff. % with Phytophthora infestans was 93%.

With `Cc1nnnn1C(=NOCc1csc(NC(=O)CCSCc2ccccc2)n1)c1ccccc1` [Example 116], the “Log P” value in data set [1] turned out to be 3.73. The compound further came in with an Eff. % with Phytophthora infestans of 80%.

Consider `Cc1nnnn1C(=NOCc1cccc(NC(=O)C(C)OCC2CCCC2)n1)c1ccccc1` (stereo not shown) [Example 29], for which the “Log P” value in data set [1] came to 4.69. Besides, the Eff. % with Phytophthora infestans is 100%.

Turning to `Cn1nnnc1C(=NOCc1csc(NC(=O)COCC2CCCCO2)n1)c1ccccc1` (stereo not shown) [Example 57], the “Log P” value in data set [1] is listed as 3.25. In the data set on Phytophthora infestans, this compound yielded an Eff. % of 95%.

Take `Cc1nnnn1C(=NOCc1csc(NC(=O)C(C)SCc2ccccc2)n1)c1ccccc1` (stereo not shown) [Example 82]: the “Log P” value in data set [1] is listed as 3.85. Besides, the Eff. % in the data set on Phytophthora infestans came to 100%.

For the compound `Cc1nnnn1C(=NOCc1cccc(NC(=O)CCOCc2ccccc2)n1)c1ccccc1` [Example 110], the “Log P” value in data set [1] came to 3.55. For the same compound, the Eff. % in the data set with Phytophthora infestans is 85%.
